Our source for the IC50 values is PubChem BioAssay AID1645862 (Buhrlage Lab, Dana-Farber Cancer Institute and Novartis …, 2021).

The source made the active and inactive calls. No rule for the calls is given here.

This assay deals with Ubiquitin carboxyl-terminal hydrolase 8 (Homo sapiens) (UniProt P40818). The assay can be described thus: Ubiquitin-specific protease 8 inhibitors, concentration-effect, biochemical, validation of initial actives (AID 1645862).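 Also: potency reflects inhibition of USP8 cleavage of a ubiquitin rhodamine substrate.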 To be noted: recombinant USP8 deubiquitinase activity assay.
Sequence of Ubiquitin carboxyl-terminal hydrolase 8 (Homo sapiens) (P40818 whole entry, looked up): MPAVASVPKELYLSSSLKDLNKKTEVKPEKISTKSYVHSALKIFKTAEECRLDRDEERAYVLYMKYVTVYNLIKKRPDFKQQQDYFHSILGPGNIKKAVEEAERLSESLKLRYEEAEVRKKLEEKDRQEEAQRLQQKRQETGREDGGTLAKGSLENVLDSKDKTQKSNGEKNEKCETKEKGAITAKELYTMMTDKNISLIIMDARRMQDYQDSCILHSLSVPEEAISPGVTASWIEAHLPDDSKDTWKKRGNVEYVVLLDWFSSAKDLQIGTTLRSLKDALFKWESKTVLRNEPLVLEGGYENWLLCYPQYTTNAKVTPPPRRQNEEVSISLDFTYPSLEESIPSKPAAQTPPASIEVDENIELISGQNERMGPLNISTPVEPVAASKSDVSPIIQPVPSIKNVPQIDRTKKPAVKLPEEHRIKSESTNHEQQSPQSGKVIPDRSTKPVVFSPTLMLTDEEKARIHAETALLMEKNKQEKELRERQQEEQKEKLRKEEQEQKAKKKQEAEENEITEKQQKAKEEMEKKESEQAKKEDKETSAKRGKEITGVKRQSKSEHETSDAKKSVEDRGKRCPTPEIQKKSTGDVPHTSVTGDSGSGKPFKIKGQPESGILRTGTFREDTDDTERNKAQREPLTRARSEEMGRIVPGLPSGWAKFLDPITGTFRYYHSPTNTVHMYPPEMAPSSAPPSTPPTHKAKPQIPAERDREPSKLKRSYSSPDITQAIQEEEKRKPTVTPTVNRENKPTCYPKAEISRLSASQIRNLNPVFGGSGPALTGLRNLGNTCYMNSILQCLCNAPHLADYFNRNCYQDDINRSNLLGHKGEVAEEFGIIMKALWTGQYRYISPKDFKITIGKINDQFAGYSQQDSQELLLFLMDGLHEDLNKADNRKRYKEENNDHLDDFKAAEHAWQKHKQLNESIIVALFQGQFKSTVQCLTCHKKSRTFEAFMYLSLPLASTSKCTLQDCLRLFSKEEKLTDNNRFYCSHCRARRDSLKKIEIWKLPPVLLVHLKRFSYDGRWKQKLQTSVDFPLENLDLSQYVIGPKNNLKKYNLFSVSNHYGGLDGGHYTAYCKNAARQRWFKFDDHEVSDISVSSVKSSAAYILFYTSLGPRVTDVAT

Regarding `Cc1ccc(C(=O)c2cn(CC(=O)Nc3ccc(F)c(F)c3)c3ccc(F)cc3c2=O)cc1`, the IC50 was > 40 µM (inactive).

Regarding `COc1ccc(OC)c(NC(=O)c2cc(Cl)ccc2OC)c1`, the IC50 was > 40 µM (inactive).

In the case of `CSc1cccc(NC(=O)COc2cccc3ccccc23)c1`, the IC50 is > 40 µM (inactive). `O=C(CCCC(=O)N(c1ccc2c(c1)OCCO2)C(C(=O)NC1CCCCC1)c1ccc(F)cc1)Nc1ccccn1` (stereo unspecified): the IC50 was > 40 µM (inactive). The figure for `O=C(CSc1nc2cc(C(F)(F)F)ccc2s1)NCC(=O)c1ccccc1` is > 40 µM (inactive); for `Cc1cc(-c2ccc(S(=O)(=O)NCc3ccc(Cl)cc3)s2)on1` it is > 40 µM (inactive); for `O=C(Nc1cc(F)c2nc(N3CCOCC3)ccc2c1)C1CC1` it is 33.6 µM. On to `COc1ccc(-c2nc3n(n2)C(CC(=O)Nc2cccc4ccccc24)C(=O)N3)cc1` (stereo unspecified), for which the IC50 was > 40 µM (inactive). Consider `O=C(NC1CCCCC1)C(c1ccc(F)cc1)N(C(=O)C1COc2ccccc2O1)c1ccc2c(c1)OCO2` (stereo unspecified), for which the IC50 was > 40 µM (inactive). With `COc1ccccc1N(CC(=O)N1c2ccccc2CC1C)S(=O)(=O)c1ccc(F)cc1` (stereo unspecified), the IC50 is > 40 µM (inactive). The figure for `COc1ccc(C(NC(=O)c2nc3n(n2)-c2ccccc2S(=O)(=O)N3)C(C)C)cc1` (stereo unspecified) is > 40 µM (inactive); for `N#Cc1cccc(NC(=O)Nc2cccn(Cc3ccc(F)cc3)c2=O)c1` it is > 40 µM (inactive); for `Cc1ccc2c(CNCCC3=CCCCC3)c(C(=O)O)n(C)c2c1` it is > 40 µM (inactive). Take `Cn1c(C(=O)NCc2ccccn2)cc2c(=O)[nH]c3ccccc3c21`: the IC50 was > 40 µM (inactive). With `O=C(CCSc1ccc(Cl)cc1)c1cccs1`, the IC50 is > 40 µM (inactive). The figure for `NC(=O)c1ccccc1NC(=O)COc1ccc2c(c1)oc(=O)c1ccccc12` is 32.6 µM; for `Nc1c(-c2ccc(Cl)cc2)cnc2cc(-c3ccc(Cl)c(Cl)c3)nn12` it is > 40 µM (inactive); for `Cc1ccc(-n2cc(-c3noc(C(=O)Nc4ccc(F)cc4C)n3)nn2)cc1` it is 7.16 µM. With `O=C(COc1ncnc2sc3c(c12)CCCC3)Nc1ccc2c(c1)OCO2` the figure was > 40 µM (inactive).

Take `O=C(Cn1c(CNC(=O)c2ccccc2)nc2ccccc21)Nc1ccc(F)cc1`: the IC50 is > 40 µM (inactive). With `O=c1[nH]c(C2CCN(S(=O)(=O)c3ccc(S(=O)(=O)NC4CC4)cc3)CC2)nc2c1nnn2Cc1c(Cl)cccc1Cl`, the IC50 was > 40 µM (inactive). For the molecule `Fc1ccccc1-c1nc2c3cnn(-c4ccccc4)c3ncn2n1`, the IC50 is > 40 µM (inactive).

Turning to `O=C(Cn1c(=O)c2ccccc2c2ccccc21)Nc1ccc2c(c1)OCO2`, the IC50 was > 40 µM (inactive). For the molecule `N=C1/C(=C/c2cn(Cc3ccccc3)c3ccccc23)C(=O)N=C2SC(C(F)(F)F)=NN12`, the IC50 is > 40 µM (inactive). The figure for `CCc1cc(=O)oc2c(C)c(OCC(=O)NCc3ccccn3)ccc12` is > 40 µM (inactive); for `CC(=O)NS(=O)(=O)c1ccc(NC(=O)/C=C/c2cn(-c3ccccc3)nc2-c2ccccc2)cc1` it is 29.4 µM; for `Cc1cccc(N2C(=O)/C(=C\c3cc(C#N)n(C)c3C)c3ccccc3C2=O)c1` it is > 40 µM (inactive). Consider `COc1ccc(NC(=O)Cn2c(=O)n(Cc3ccco3)c(=O)c3ccc(C(=O)NC4CCCC4)cc32)cc1`, for which the IC50 was > 40 µM (inactive). In the case of `O=C(Nc1cccc(-c2nc3ncccc3o2)c1)c1ccc([N+](=O)[O-])cc1`, the IC50 was > 40 µM (inactive).

Regarding `CCOc1ccc(-c2nc(SCC(=O)Nc3cccc(C)c3)n3[nH]c(=O)cc3n2)cc1`, the IC50 is > 40 µM (inactive). The figure for `O=C(Cc1ccc(-n2c(=O)c3ccccc3n(Cc3cccc([N+](=O)[O-])c3)c2=O)cc1)NC1CCCC1` is > 40 µM (inactive); for `Cc1cc(=O)[nH]c(NC2CCN(S(=O)(=O)c3ccccc3C(F)(F)F)CC2)n1` it is > 40 µM (inactive); for `Cc1ccc(S(=O)(=O)NCc2ccc(C(=O)NCCc3ccc(S(N)(=O)=O)cc3)cc2)cc1` it is > 40 µM (inactive).

On to `COc1ccc(CCNC(=O)Cn2c(=O)c3sccc3n(Cc3cccc([N+](=O)[O-])c3)c2=O)cc1OC`, for which the IC50 was > 40 µM (inactive). With `CC(C)c1nnc(NC(=O)C2CC(=O)N(CCc3ccc(F)cc3)C2)s1` (stereo unspecified) the figure was > 40 µM (inactive). As to `CCOc1ccc(NC(=O)Cn2cc(C(=O)c3ccc(Cl)cc3)c(=O)c3cc(OC)ccc32)cc1`, the IC50 was > 40 µM (inactive). For the molecule `Cc1ccccc1-c1noc(-c2ccccc2OCC(=O)NC(C)C)n1`, the IC50 was > 40 µM (inactive).

For the molecule `Cn1c2ccccc2c(=O)c2c(=O)n(-c3cccc(Cl)c3)c(-c3cccs3)nc21`, the IC50 was 4.52 µM. In the case of `COc1ccc(/C=C/C(=O)Nc2ccc3nc(N4CCN(c5ncccn5)CC4)cc(C)c3c2)cc1`, the IC50 is > 40 µM (inactive). On to `CN1c2ccccc2C(=O)NC12CCN(C(=O)NCc1ccccc1)CC2`, for which the IC50 is > 40 µM (inactive).

Take `Cc1nc(-c2ccccc2)sc1-c1nc(-c2ccccc2)ncc1S(=O)(=O)c1ccccc1`: the IC50 is > 40 µM (inactive).

For the molecule `CCOC(=O)N1CCN(C(=O)c2ccc(CS(=O)c3ccccc3Cl)o2)CC1` (stereo unspecified), the IC50 was > 40 µM (inactive).

As for `COc1ccc(OC)c(NC(=O)c2sc(-c3ccccc3)nc2C)c1`, the IC50 is > 40 µM (inactive).

For the molecule `COc1cccc(-n2cnc3cc(C(=O)NCCc4ccccc4)ccc3c2=O)c1`, the IC50 was > 40 µM (inactive). Consider `O=C(/C=C/c1cccc([N+](=O)[O-])c1)N1CCc2ccccc21`, for which the IC50 was > 40 µM (inactive). `Cc1ccccc1-n1ccc2nc(N3CCCC3)ncc2c1=O`: the IC50 was > 40 µM (inactive). `CCCn1cc(-c2nc(-c3ccccn3)no2)c(=O)c2ccccc21`: the IC50 is > 40 µM (inactive).

`Cc1ccccc1NC(=O)N1CCC(CC(=O)N2CCCCC2)CC1`: the IC50 is > 40 µM (inactive). As for `COc1ccccc1C(=O)N1CCC[C@H](Cn2nnc(-c3cccnc3)n2)C1`, the IC50 was > 40 µM (inactive). For the molecule `COc1ccc(C(=O)NC(Cc2ccccc2)c2nc3ccccc3[nH]2)c(OC)c1` (stereo unspecified), the concentration for half-maximal inhibition (IC50) was 9.44 µM.

Take `CCOc1ccc(-c2noc(-c3nn(-c4cccc(OC)c4)ccc3=O)n2)cc1`: the IC50 was 34.1 µM. Regarding `CCOc1ccc2[nH]c3c(=O)n(CCc4ccc(OC)cc4)cnc3c2c1`, the IC50 is > 40 µM (inactive). With `COc1ccc(S(=O)(=O)NCc2ccc3c(c2)cc(C)n3C)cc1`, the IC50 is > 40 µM (inactive). In the case of `COc1ccc(OC)c(-c2cn3ccn(-c4ccc(F)c(Cl)c4)c(=O)c3n2)c1`, the 50% inhibitory concentration (IC50) is 20.6 µM. For the molecule `COc1ccc(NC(=O)Cn2c(C)cc(=O)n3nc(-c4cccc(C)c4)nc23)cc1`, the IC50 is > 40 µM (inactive).

As for `O=C(Cn1c(=O)n(-c2ccc(Cl)cc2)c(=O)c2c3c(sc21)CCCC3)NCC1CCCO1` (stereo unspecified), the IC50 was > 40 µM (inactive). With `O=C(NC1CCCC1)C1CC(=O)N(c2cccc(-c3noc(-c4cccs4)n3)c2)C1` (stereo unspecified), the IC50 was > 40 µM (inactive).

Regarding `COc1ccc(C(=O)Nc2ccccc2C(=O)NC(Cc2ccc(O)cc2)C(=O)NNC(=O)Cc2ccc(OC)c(OC)c2)cc1` (stereo unspecified), the IC50 was > 40 µM (inactive). For the molecule `COc1cc2c(c(OC)c1OC)-c1ccc(NCCc3cccc(F)c3)c(=O)cc1[C@@H](NC(C)=O)CC2`, the IC50 was > 40 µM (inactive). Regarding `CC(=O)c1cc(-c2ccc(F)cc2)n(CC(=O)Nc2cccc(C)c2C)c1C`, the IC50 was > 40 µM (inactive). Turning to `O=C(/C=C/c1ccc(Br)cc1)Nc1cnc2ccccc2c1`, the IC50 was > 40 µM (inactive). On to `CCCCCCC1CCC(O)CC(O)CC(O)CC(O)CC(O)CC(O)/C(C)=C/C=C\C=C/C=C/C=C/[C@H](O)[C@@H](C)OC1=O` (stereo partly specified), for which the IC50 was > 40 µM (inactive). Regarding `CC1=C(C)C(c2c(-c3ccc(C)cc3)[nH]c3ccccc23)N(C(C)(C)C)C1=O` (stereo unspecified), the IC50 is > 40 µM (inactive).

As for `CS(=O)(=O)NC1CCCN(C(=O)Nc2cccc3ccccc23)C1` (stereo unspecified), the IC50 is > 40 µM (inactive). With `O=C(O)c1ccccc1C(=O)Nc1ccc(SC(C(=O)Nc2ccccc2Cl)c2ccccc2)cc1` (stereo unspecified) the figure was > 40 µM (inactive). The figure for `O=C(CSc1nc(=O)n(Cc2ccncc2)c2c1CCC2)NCCc1ccccc1` is > 40 µM (inactive); for `COc1ccc(-c2cc3n(c(=N)c2C#N)CCc2cc4c(cc2-3)OCO4)cc1O` it is > 40 µM (inactive). The figure for `CC(=O)CSc1nc2sc3c(c2c(=O)n1-c1ccccc1)CCCC3` is > 40 µM (inactive); for `CCOc1ccc2c(c1)c(=O)c(C(=O)c1ccccc1)cn2CC(=O)Nc1ccc2c(c1)OCCO2` it is > 40 µM (inactive); for `Cc1cccc(N2CCN(C(=O)c3nc4cccnc4n(C)c3=O)CC2)c1C` it is > 40 µM (inactive). Take `CC1=CC(=O)C(C2=C(O)C(=O)C(C)=CC2=O)=C(O)C1=O`: the IC50 is 9.22 µM. With `COc1ccc(-c2nc(SCC(=O)Oc3c(C)cccc3C)n3[nH]c(=O)cc3n2)cc1`, the IC50 was 18 µM.

In the case of `Cn1c(=O)c2nc(-c3ccc(Cl)cc3)nnc2n(C)c1=O`, the IC50 is 0.734 µM. Take `O=C(COC(=O)c1cccc([N+](=O)[O-])c1)Nc1cccc(Oc2ccccc2)c1`: the IC50 was > 40 µM (inactive). Take `Cc1cccc(OCCn2c(CCNC(=O)C3CCCCC3)nc3ccccc32)c1`: the IC50 was > 40 µM (inactive). Consider `O=C(CSc1oc(-c2ccc(F)cc2)nc1S(=O)(=O)c1ccc(F)cc1)Nc1ccc(F)cc1`, for which the IC50 was > 40 µM (inactive). In the case of `CCc1cccc(CC)c1NC(=O)COC(=O)c1cc2cccc(OC)c2oc1=O`, the IC50 is > 40 µM (inactive).

Regarding `O=C1CSC(c2ccc(F)cc2)c2c(n(C3CCCCCC3)[nH]c2=O)N1` (stereo unspecified), the IC50 is 31.9 µM.

As to `CCCCCCCC1OC(=O)Cc2cc(O)c(O)c(O)c21` (stereo unspecified), the half-maximal inhibitory concentration (IC50) was 8.62 µM. As to `Cc1ccc(CNC(=O)c2nc(-c3ccc4c(c3)OCC(=O)N4C)no2)cc1`, the IC50 was > 40 µM (inactive).

As to `Cc1cc(N2CCN(c3ncccn3)CC2)nc2ccc(NC(=O)Cn3nc([N+](=O)[O-])c(Br)c3C)cc12`, the IC50 is > 40 µM (inactive).
